Data taken from a melting point compilation (Tetko et al.; mined from patent text by program, amines drawn as free bases though some values may be those of a salt).

melting point | Structure (SMILES)
125 °C | COC(=O)c1c(OC)c(OC)c2oc(C)cc(=O)c2c1OC
295 to 296 °C | O=C1Nc2ccccc2Nc2ncccc21
138 to 140 °C | COC(=O)c1ccc(Cc2cccc3ccc(C#N)cc23)c(OC)c1
178 to 179 °C | CC(CNC(=O)C=CC=Cc1ccccc1)C(=O)NO (stereo not drawn)
83 to 84 °C | O=S(=O)(On1nnc2ccccc21)c1ccccc1
105 to 107 °C | ClCCOc1ccc2c(c1)oc1cc(Cl)ccc12
212 to 214 °C | Cn1cc(-c2ccccc2)c(=O)c(-c2ccc([N+](=O)[O-])cc2)c1
26 to 28 °C | N#C/C=C/c1cccc(Cl)c1
29 to 30 °C | CCCCCCCCCCc1ccnc(C(=O)NCC(=O)OCC)c1
68 to 75 °C | CN(C)Cc1cc(-c2c(-c3ccc(F)cc3)nn3c(Cl)cccc23)nc(NC2CCCC2)n1
233 °C | CCOC(=O)C1=C(C)N(Cc2ccccc2[N+](=O)[O-])C2=C(C(=O)OC2)C1c1ccccc1C(F)(F)F (stereo not drawn)
85 to 88 °C | CN(C)C(=O)OCc1nc([N+](=O)[O-])c(C#N)n1C
181 °C | COc1cc(OC)nc(NC(=O)NS(=O)(=O)c2ncccc2-c2ccccc2)n1
77 to 81 °C | N#Cc1ccc2c(c1)CCC=C2c1ccns1
135 to 138 °C | NC(=O)C(c1ccccc1)(c1ccccc1)C1CCN(Cc2ccccc2)C1 (stereo not drawn)
139 to 140 °C | COCOc1ccccc1-c1cc(-c2cccc(CN=[N+]=[N-])c2)c(C#N)c(NC(=O)c2cccs2)n1
205 to 207 °C | Cn1cnc2c(Cl)ncnc21
159 to 160 °C | CCCCCCCCCCNC(=O)c1ccc(C(=O)NCCCCCCCCCC)c([N+](=O)[O-])c1
52 to 53 °C | CCCCCCCCCCOc1cc(OCCCCCCCCCC)cc(C(=O)OC)c1
251 °C | CC(=NNC(=O)c1ccc([N+](=O)[O-])cc1)c1ccncc1
129 to 131 °C | Brc1ccc2c(c1)N=C(N1CCN(Cc3ccccc3)CC1)c1cccc3c1N2CC3
230 to 234 °C | OC1Oc2ccccc2-n2cnc(-c3noc(C4CC4)n3)c21 (stereo not drawn)
93 to 95 °C | Cc1ccc(COc2ncc(F)c(NC(=O)c3ccccc3)n2)cc1
122 °C | O=C(O)c1ccccc1Oc1cccc(F)c1
192 to 193 °C | O=C(O)Cc1nn(Cc2nc3cc(C(F)(F)F)ccc3s2)c(=O)c2nccnc12
60 to 65 °C | CCCCc1nc2c(N)nc3cccnc3c2n1CCNC(=O)C(N)CC(C)C (stereo not drawn)

melting point | Structure (SMILES)
168 to 170 °C | CSCc1cn(C)c2cc(Br)ccc2c1=O
194 to 196 °C | O=C(O)Cc1c(C(=O)c2ccccc2)[nH]c2ccccc12
130 to 133 °C | CCN(C)c1nc2cc(-c3ccccc3)nnc2c2ccccc12
119 °C | COc1cccc(OC)c1-c1ccc(CC(NC(=O)Nc2ccccc2S(=O)(=O)c2ccccc2)C(=O)O)cc1 (stereo not drawn)
116 to 117 °C | CCN(CC)CCNC(=O)c1cc(Cl)c(N)cc1OCCCS(C)=O (stereo not drawn)
168 °C | COc1cccc(OC)c1S(=O)(=O)OCC(=NNc1ccccc1)c1ccccc1
221 to 225 °C | CS(=O)(=O)Nc1cccc(Nc2nc(NCc3cccc(O)c3)c3nc[nH]c3n2)c1
133 to 139 °C | COc1ccc(-c2ccc3c(c2)C=C(C(=O)Nc2ccc(CN(C)C4CCC(=O)CC4)cc2)CCS3)cc1
141 to 142 °C | CCOC(=O)c1nc2scc(C)n2c1C
96 °C | OCc1c(C(F)(F)F)n(Cc2ccccc2)c2ccccc12
113 to 115 °C | CSc1sc(C(=O)N(C)C)c2c1-c1oncc1C(C)(C)C2
255 to 257 °C | CCOC(=O)c1c2n(c3cc(Cl)c(Cl)cc3c1=O)CCS2
256 to 258 °C | O=C(O)c1cn2c(n1)COc1ccccc1-2
84 to 86 °C | CCOC(=O)COc1ccc2c(c1)C(=O)CCC2
88.5 to 89.5 °C | CCCCCCOc1ccc(C(=O)CSc2ccnc3ccccc23)c(OC)c1
170 to 171 °C | COCc1ccc(C(=O)N[C@H](Cc2ccc(C(F)(F)F)cc2)[C@@H](O)c2ccc(F)cc2)c2ccccc12 (racemic)
226 to 228 °C | Cc1nc(N2CCNC2=O)sc1C(=O)NCc1ccccc1
123 to 125 °C | CN(C)Cc1nc2cccnc2[nH]1
141 to 143 °C | C=CCc1cc(C)c2c(c1O)C(C)(C)C(=O)N2
> 310 °C | N=C(N)N1CCC(CC(=O)O)CC1
188 °C | NC(=O)NCCNc1ccc([N+](=O)[O-])cc1Cl
94 °C | CCCC1CCc2cc(NC(=O)OCC)ccc2O1 (stereo not drawn)
177 to 178 °C | CC(C)(C)n1c(=O)n(-c2ccnc(N)c2)c2ccccc21
166 to 169 °C | OC(=S)CCCCCCn1c(-c2ccccc2)nc(-c2ccccc2)c1-c1ccccc1
> 200 °C | O=C(CCc1cccnc1)Nc1cccc(-c2ccnc3c(C(=O)c4cccs4)cnn23)c1
79 to 81 °C | CCOC(=O)C(C)(C)Oc1ccc(OCc2nc(-c3ccc(C(C)(C)C)cc3)no2)cc1

melting point | Structure (SMILES)
134 °C | COc1ccc(C(=O)C2(C)CCC(C(=O)O)C2(C)C)c(OC)c1 (stereo not drawn)
126 °C | COc1cccc(C2=CCN(c3ccc(Cl)nn3)CC2)c1
92 to 95 °C | CC(C)(C(=O)O)c1ccc2oc(-c3ccccc3)nc2c1
147 to 149 °C | CCOc1cc2cc(CO)cc(-c3ccnc(NN)c3)c2cc1OCC
176 to 177 °C | O=c1ccn(-c2cccnc2)nc1-c1ccnn1-c1ccccc1
323 to 324 °C | CCOC(=O)c1cn(C)c2nc3cc(F)c(F)cc3cc2c1=O
86 to 87 °C | Cc1oc(C=Cc2cccc(Cl)c2)nc1CCl
80.4 to 81.9 °C | CC(C)(CO)c1ccc(C=O)c(O)c1
185 to 186 °C | O=C(NN1CCCCCC1)c1nc(-c2ccc(Cl)cc2Cl)c(-c2ccc(Cl)cc2)s1
126 to 128 °C | COc1cc2c(cc1OC)CN(C(c1ccccc1)c1ccccc1)C2
126 to 128 °C | CCCC(C)(CC)C(=O)O[C@H]1C[C@H](O)C=C2C=C[C@H](C)[C@H](CC[C@@H]3C[C@@H](O)CC(=O)O3)[C@H]21 (stereo partly drawn)
70 to 74 °C | CCC1c2cccn2-c2ccc(F)cc2N1C(=O)c1cccc(OC)c1 (stereo not drawn)
197 °C | COc1cc(Nc2nccc(-c3c[nH]c4ccccc34)n2)cc(OC)c1OC
194 to 196 °C | CCOC(=O)c1ncc2[nH]c3cccc(Oc4ccc(Cl)cn4)c3c2c1C
78 °C | CC(C)(C)OC(=O)Nc1ccc(-c2cccc(F)c2F)cc1N
184 to 186 °C | O=C1OCCC12Sc1cc(NO)ccc1C2=O (stereo not drawn)
138 to 139 °C | N#CCOc1ccc2cc(CNC(=O)c3cc4ccccc4o3)ccc2c1
76 to 77 °C | CCOC(=O)C(CCCc1ccccc1)(NC(C)=O)C(=O)OCC
168 to 173 °C | CC(C)(C)OC(=O)N1CCN(c2cccc3cc(N)cnc23)CC1
62 to 65 °C | COc1cccnc1OCC(O)CO (stereo not drawn)
39 to 41 °C | CCCc1c(OC(C)=O)ccc2oc(Cc3ccc(OC)cc3)c(C)c12
272 to 274 °C | O=C1Nc2sccc2C(=O)N2CC[C@@H]12
93 to 94 °C | CC(=O)N(C)c1nc(C(C)(C)C)nn1-c1c(Cl)cc(Cl)cc1Cl
139 °C | CCOC(=O)C=Cc1cnn2c(N(C)c3ccccc3)ncnc12
52 to 53 °C | CCCc1nn(-c2ccc(C(F)(F)F)cn2)cc1C=O
134 to 135 °C | COc1ccc2c(c1)Sc1c(cc(OC)c(OC(C)=O)c1Br)N2C(=O)OC(C)OC(C)=O (stereo not drawn)

melting point | Structure (SMILES)
134 to 136 °C | Cc1cc(-n2nc(C(F)(F)F)cc2-c2ccc(S(C)(=O)=O)cc2)ccc1F
124 °C | O=C1Oc2ccccc2Sc2ccccc21
179 to 180 °C | NS(=O)(=O)c1ccc(-n2nc(C(F)(F)F)c(CO)c2-c2ccccc2)cc1
119 to 120 °C | COC(=O)CSc1ccc(N2CC(CNC(C)=O)OC2=O)cc1F (stereo not drawn)
158 to 159 °C | O=Cc1c2ccccc2c(CCCl)c2ccccc12
166 to 172 °C | CC(C)(C)c1ccc(/C=C/C(=O)Nc2cccc(OCC(=O)O)c2)cc1
166 to 168 °C | CC(C)C(C(=O)O)n1sc2ccccc2c1=O (stereo not drawn)
120 to 121 °C | Cc1ncnn1-c1cc(F)ccc1C#N
217 to 219 °C | COCc1c(C(=O)OC(C)C)ncc2[nH]c3cccc(Oc4ccc([N+](=O)[O-])cc4)c3c12
150 to 154 °C | CNC(=O)c1ccc(Cl)nc1
152 to 153 °C | CCCC(=O)Nc1c(C)c2c(c(C(C)c3ccc(C(C)C)cc3)c1C)OCC2 (stereo not drawn)
86 to 88 °C | CC(C)(C)OC(=O)NCC(CCn1ccc(=O)[nH]c1=O)COC(c1ccccc1)(c1ccccc1)c1ccccc1 (stereo not drawn)
54 to 58 °C | COc1ccc2cccc(Br)c2c1
50 to 51 °C | COC(=O)C=C(Nc1ccc(CC(=O)OC)cc1)C(F)(F)F
146 °C | Cc1nc(Nc2ccc(C(C)C)cc2Br)c([N+](=O)[O-])c(-c2ccccc2C(F)(F)F)n1
210 °C | Cc1c(-c2ccc3oc(=O)n(C)c3c2)nc2c(OCc3ccccc3)cccn12
260 to 264 °C | CC1(C)C(=O)NC(=O)c2cc(NC(N)=O)ccc21
172 to 173 °C | Cc1scc2c1N(C(=O)CN1CCCCC1CN(C)C)c1ccccc1NC2=O (stereo not drawn)
140 to 141 °C | COc1ccc(NC(=O)Nc2ccc(C(=O)O)cc2)cc1C12CC3CC(CC(C3)C1)C2
126 to 129 °C | O=C(O)CC1CC(c2ccccc2)c2ccccc21 (stereo not drawn)
82 °C | CCc1ccc(N2CCOCC2)c(NC(C)=O)c1
175 to 177 °C | COc1ccc(N(C=C(C#N)C#N)CCC#N)cc1
118 to 119 °C | COC(=O)c1cc2c(OC[C@@H](O)CN3CCC(c4ccc5ccccc5c4)CC3)cccc2o1

Structure (SMILES) | melting point
C=CCOc1cc(N2C(=O)C3CCCCN3C2=O)c(F)cc1C#N (stereo not drawn) | 132 °C
Brc1cccc(P(c2ccccc2)c2ccccc2)n1 | 81 °C
